Results taken from patent US5140014A (Abbott Laboratories, priority 1989, dated 1992).
In brackets after ≈: the same amount, converted by molar mass. Where two headings read alike, the source gives them in different places.

Legend:
Assay in all cases: in vitro antibacterial activity, agar dilution method (MIC)
Assay type in all cases: cell-based
[1] = tested on: Staphylococcus Epidermidis; settings: Staphylococcus epidermidis, strain 3519; BHI agar, 20-24 hours; read-out: MIC
Protocol: (§1) The test medium was Brain Heart Infusion (BHI) agar. The antibacterial agent was dissolved at a concentration of 2,000 ug/mL. Test plates were then prepared, usually 12 two-fold dilutions. After adding the sample to the plates, 10 mL of cooled BHI agar medium was added to each plate. The organisms were grown overnight in BHI broth (Difco) in a 35°-37° C. incubator.
(§2) On the day of testing, the bacterial suspensions were diluted 1:100 in sterile distilled water, except for a few slow-growing organisms (usually Micrococcus and Streptococcus) which were diluted 1:10. The plate was then inoculated with approximately 10^4 organisms. This was incubated in a 35°-37° C. incubator for 20-24 hours. Thereafter, the plates were read to determine the minimum inhibitory concentration (MIC) defined as the lowest concentration of drug yielding no growth on the plate, a slight haze, or sparsely isolated colonies on the inoculum spot as compared to the growth control.

[2] = tested on: Streptococcus Pyogenes; settings: Streptococcus pyogenes
Protocol: as §1, §2

[3] = tested on: Enterococcus Faecium; settings: Enterococcus faecium, ATCC8043, strain ATCC 8043; BHI agar, 20-24 hours; read-out: MIC
Protocol: as §1, §2

[4] = tested on: Micrococcus Luteus; settings: Micrococcus luteus
Protocol: as §1, §2

[5] = tested on: Streptococcus Bovis; settings: Streptococcus equinus, strain A5169; BHI agar, 20-24 hours
Protocol: as §1, §2

[6] = tested on: Providencia Stuartii; settings: Providencia stuartii; strain CMX 640; BHI agar, 20-24 hours; read-out: MIC
Protocol: as §1, §2

[7] = tested on: Streptococcus Agalactiae; settings: Streptococcus agalactiae, strain CMX 508; BHI agar, 20-24 hours; read-out: MIC
Protocol: as §1, §2

[8] = tested on: Pseudomonas Aeruginosa; settings: Pseudomonas aeruginosa, BHI agar, 20-24 hours, read-out: MIC
Protocol: as §1, §2

[9] = tested on: Acinetobacter Sp; settings: Acinetobacter, strain CMX 669; BHI agar, 20-24 hours; read-out: MIC
Protocol: as §1, §2

[10] = tested on: Klebsiella Pneumoniae; settings: Klebsiella pneumoniae, ATCC8045, strain ATCC 8045; BHI agar, 20-24 hours; read-out: MIC
Protocol: as §1, §2

[11] = tested on: Haemophilus Influenzae; settings: Haemophilus influenzae, BHI agar, 20-24 hours
Protocol: as §1, §2

[12] = tested on: Enterobacter Aerogenes; settings: Klebsiella aerogenes, ATCC13048, strain ATCC 13048; BHI agar, 20-24 hours; read-out: MIC
Protocol: as §1, §2

[13] = tested on: Staphylococcus Aureus; settings: Staphylococcus aureus
Protocol: as §1, §2

[14] = tested on: Escherichia Coli; settings: Escherichia coli, BHI agar, 20-24 hours, read-out: MIC
Protocol: as §1, with “Compounds 1 to 8 were evaluated for antibacterial activity by the agar dilution method to determine the degree of in vitro susceptibility of aerobic microorganisms to antimicrobial agents. The test” for “The test”
as §2

[15] = tested on: Pseudomonas Cepacia; settings: Burkholderia cepacia; strain 296I; BHI agar, 20-24 hours; read-out: MIC
Protocol: as §1, with “Compounds 1 to 8 were evaluated for antibacterial activity by the agar dilution method to determine the degree of in vitro susceptibility of aerobic microorganisms to antimicrobial agents. The test” for “The test”
as §2

[16] = strain 930 CONST, BHI agar, 20-24 hours, read-out: MIC
[17] = strain 2548 INDUC, BHI agar, 20-24 hours, read-out: MIC
[18] = ATCC4698, strain ATCC 4698, BHI agar, 20-24 hours, read-out: MIC
[19] = ATCC43095, strain ATCC 43095, read-out: MIC
[20] = NCTC10649, strain NCTC 10649, BHI agar, 20-24 hours, read-out: MIC
[21] = strain 45, BHI agar, 20-24 hours, read-out: MIC
[22] = strain 45 RAR2, BHI agar, 20-24 hours, read-out: MIC
[23] = strain 642A, BHI agar, 20-24 hours, read-out: MIC
[24] = strain A5177, BHI agar, 20-24 hours, read-out: MIC
[25] = strain CMX 553, BHI agar, 20-24 hours, read-out: MIC

`CCC1OC(=O)CC(O)C(C)C(OC2OC(C)CC(N(C)C)C2O)C(CC=O)CC(C)C(N(C)C)C=CC2(C)OC2C1C` (stereo not shown) [Example 1, [9R]-9-Deoxo-9-N,N-dimethylamino-rosaramicin] was tested, and the MIC [1] was 0.78 µg/mL (≈ 1.28 µM), the MIC [2] was 0.05 µg/mL (≈ 0.0819 µM) and the MIC [2, 16] was greater than 100 µg/mL. The MIC [2, 17] was 0.39 µg/mL (≈ 0.638 µM), the MIC [3] was 0.39 µg/mL (≈ 0.638 µM) and the MIC [4, 18] was 0.2 µg/mL (≈ 0.327 µM). For the same compound, the MIC ([4]; ATCC9341) was 0.1 µg/mL (≈ 0.164 µM), the MIC [5] was 0.05 µg/mL (≈ 0.0819 µM) and the MIC [6] was greater than 100 µg/mL. It also gave an MIC [7] of 0.1 µg/mL (≈ 0.164 µM), an MIC ([8]; strain A5007) greater than 100 µg/mL and an MIC ([8]; strain BMH10) of 50 µg/mL (≈ 81.9 µM). The MIC ([8]; strain K799/61) was 0.78 µg/mL (≈ 1.28 µM), the MIC ([8]; strain K799/WT) was 50 µg/mL (≈ 81.9 µM) and the MIC [9] was 1.56 µg/mL (≈ 2.55 µM). The MIC [10] was 12.5 µg/mL (≈ 20.5 µM), the MIC ([11]; ATCC9795, strain ATCC 9795) was 1 µg/mL (≈ 1.64 µM) and the MIC ([11]; ATCC10211, strain ATCC 10211) was 1 µg/mL (≈ 1.64 µM). It also gave an MIC ([11]; ATCC19418, strain ATCC 19418) of 1 µg/mL (≈ 1.64 µM), an MIC [11, 19] of 0.25 µg/mL (≈ 0.409 µM) and an MIC ([11]; strain 503B) of 1 µg/mL (≈ 1.64 µM). The MIC ([11]; strain 504) was 1 µg/mL (≈ 1.64 µM), the MIC ([11]; strain 519A, read-out: MIC) was 0.5 µg/mL (≈ 0.819 µM) and the MIC ([11]; strain 566A, read-out: MIC) was 2 µg/mL (≈ 3.27 µM). For the same compound, the MIC ([11]; strain 588A) was 1 µg/mL (≈ 1.64 µM), the MIC ([11]; strain 632A) was 1 µg/mL (≈ 1.64 µM) and the MIC ([11]; strain 667A) was 1 µg/mL (≈ 1.64 µM). For the same compound, the MIC ([11]; strain 747C) was 1 µg/mL (≈ 1.64 µM), the MIC ([11]; strain 751, read-out: MIC) was 2 µg/mL (≈ 3.27 µM) and the MIC ([11]; strain 1177, read-out: MIC) was 0.06 µg/mL (≈ 0.0982 µM). For the same compound, the MIC ([11]; strain 1435, read-out: MIC) was 0.5 µg/mL (≈ 0.819 µM), the MIC ([11]; strain DILL AMP R) was 1 µg/mL (≈ 1.64 µM) and the MIC ([11]; strain SOL AMP R) was 1 µg/mL (≈ 1.64 µM). The MIC ([11]; strain SPK AMP R) was 1 µg/mL (≈ 1.64 µM), the MIC [12] was 6.2 µg/mL (≈ 10.2 µM) and the MIC ([13]; ATCC6538P) was 0.78 µg/mL (≈ 1.28 µM). For the same compound, the MIC [13, 20] was 0.78 µg/mL (≈ 1.28 µM), the MIC [13, 21] was 0.78 µg/mL (≈ 1.28 µM) and the MIC [13, 22] was 0.78 µg/mL (≈ 1.28 µM). It also gave an MIC [13, 23] of 0.78 µg/mL (≈ 1.28 µM), an MIC [13, 24] of 1.56 µg/mL (≈ 2.55 µM) and an MIC [13, 25] of 0.78 µg/mL (≈ 1.28 µM). It also gave an MIC ([14]; strain DC-2) of 3.1 µg/mL (≈ 5.08 µM), an MIC ([14]; strain H560) of 0.78 µg/mL (≈ 1.28 µM) and an MIC ([14]; strain JUHL) of 6.2 µg/mL (≈ 10.2 µM). For the same compound, the MIC ([14]; strain KNK 437) was 6.2 µg/mL (≈ 10.2 µM), the MIC ([14]; strain SS) was 0.1 µg/mL (≈ 0.164 µM) and the MIC [15] was 100 µg/mL (≈ 164 µM).
With `CC[C@H]1OC(=O)C[C@@H](O)[C@H](C)[C@@H](O[C@@H]2O[C@H](C)C[C@H](N(C)C)[C@H]2O)[C@@H](CC=O)C[C@@H](C)C(=O)/C=C/[C@]2(C)O[C@H]2[C@@H]1C` [Rosaramicin, 5-O-(4'-deoxy-mycaminosyl)-12,13-epoxy-23-deoxy-tylonide, reference compound] the MIC [1] was 0.39 µg/mL (≈ 0.67 µM), the MIC [2, 16] was greater than 100 µg/mL and the MIC [2, 17] was 0.39 µg/mL (≈ 0.67 µM). The MIC ([2]; strain EES61, BHI agar, 20-24 hours, read-out: MIC) was 0.1 µg/mL (≈ 0.172 µM), the MIC [3] was 0.39 µg/mL (≈ 0.67 µM) and the MIC [4, 18] was 0.1 µg/mL (≈ 0.172 µM). For the same compound, the MIC [6] was 100 µg/mL (≈ 172 µM), the MIC [7] was 0.2 µg/mL (≈ 0.344 µM) and the MIC ([8]; strain A5007) was 100 µg/mL (≈ 172 µM). For the same compound, the MIC ([8]; strain BMH10) was 50 µg/mL (≈ 85.9 µM), the MIC ([8]; strain K799/61) was 0.78 µg/mL (≈ 1.34 µM) and the MIC ([8]; strain K799/WT) was 25 µg/mL (≈ 43 µM). It also gave an MIC [9] of 12.5 µg/mL (≈ 21.5 µM), an MIC [10] of 12.5 µg/mL (≈ 21.5 µM) and an MIC ([11]; ATCC9795, strain ATCC 9795) of 1 µg/mL (≈ 1.72 µM). For the same compound, the MIC ([11]; ATCC10211, strain ATCC 10211, read-out: MIC) was 0.5 µg/mL (≈ 0.859 µM), the MIC ([11]; ATCC19418, strain ATCC 19418) was 1 µg/mL (≈ 1.72 µM) and the MIC [11, 19] was 0.5 µg/mL (≈ 0.859 µM). For the same compound, the MIC ([11]; strain 503B) was 1 µg/mL (≈ 1.72 µM), the MIC ([11]; strain 504) was 1 µg/mL (≈ 1.72 µM) and the MIC ([11]; strain 519A, read-out: MIC) was 0.5 µg/mL (≈ 0.859 µM). It also gave an MIC ([11]; strain 566A) of 1 µg/mL (≈ 1.72 µM), an MIC ([11]; strain 588A, read-out: MIC) of 0.5 µg/mL (≈ 0.859 µM) and an MIC ([11]; strain 632A) of 1 µg/mL (≈ 1.72 µM). The MIC ([11]; strain 667A) was 1 µg/mL (≈ 1.72 µM), the MIC ([11]; strain 747C, read-out: MIC) was 0.5 µg/mL (≈ 0.859 µM) and the MIC ([11]; strain 751) was 1 µg/mL (≈ 1.72 µM). For the same compound, the MIC ([11]; strain 1177, read-out: MIC) was 0.12 µg/mL (≈ 0.206 µM), the MIC ([11]; strain 1435, read-out: MIC) was 0.5 µg/mL (≈ 0.859 µM) and the MIC ([11]; strain DILL AMP R, read-out: MIC) was 0.5 µg/mL (≈ 0.859 µM). For the same compound, the MIC ([11]; strain SOL AMP R, read-out: MIC) was 0.5 µg/mL (≈ 0.859 µM), the MIC ([11]; strain SPK AMP R, read-out: MIC) was 0.5 µg/mL (≈ 0.859 µM) and the MIC [12] was 25 µg/mL (≈ 43 µM). For the same compound, the MIC ([13]; ATCC6538P) was 0.39 µg/mL (≈ 0.67 µM), the MIC [13, 20] was 0.39 µg/mL (≈ 0.67 µM) and the MIC [13, 21] was 0.39 µg/mL (≈ 0.67 µM). It also gave an MIC [13, 22] of 0.39 µg/mL (≈ 0.67 µM), an MIC [13, 23] of 0.39 µg/mL (≈ 0.67 µM) and an MIC [13, 24] of 0.78 µg/mL (≈ 1.34 µM). The MIC [13, 25] was 0.39 µg/mL (≈ 0.67 µM), the MIC ([14]; strain DC-2) was 12.5 µg/mL (≈ 21.5 µM) and the MIC ([14]; strain H560) was 6.2 µg/mL (≈ 10.7 µM). The MIC ([14]; strain JUHL) was 12.5 µg/mL (≈ 21.5 µM), the MIC ([14]; strain KNK 437) was 25 µg/mL (≈ 43 µM) and the MIC ([14]; strain SS) was 0.2 µg/mL (≈ 0.344 µM). It also gave an MIC [15] of 25 µg/mL (≈ 43 µM).
